Laboratory results: patent US10420781B2, “Thyroid hormone receptor agonist and use thereof” (Metabasis Therapeutics, Inc., priority 2016, dated 2019)
Entries after “also recorded” stand apart in the source; their conditions may differ.

Columns and labels:
[1] = tested on: fT3 and fT4 levels in monkey serum; test: Ex vivo effect on fT3 and fT4 levels in monkey serum (RIA); conditions: 1 h at 37° C., 1-100 μM tested
Protocol: (§1) Compound I was tested to measure its ex vivo effects at concentrations ranging from 0 to 100 μM on the free 3,5,3′-triiodothyronine (fT3) and the free 3,5,3′,5′ tetraiodothyronine (fT4) levels in human, monkey, dog, and rat sera.
(§2) Stock solution of Compound I was prepared in 100% DMSO. The test articles were combined with either human, monkey, dog or rat serum in a microcentrifuge tube at concentrations of 1, 3, 10, 30, and 100 μM, and incubated at 37° C. with agitation (800 rpm) using a Thermomixer R (Eppendorf, Inc.; Westbury, N.Y.) for 1 h. The DMSO concentration in the serum incubations was kept constant at 1%. Following the serum incubations, fT3 and T4 quantification was accomplished using the GammaCoat™ FT3 and the GammaCoat™ FT4 RIA kits, respectively. The kits were used according to the manufacturer's recommendations. The T3 assay specifications indicate 0.2% cross-reactivity with T4, while the T4 assay specifications indicate 0.5% cross-reactivity with T3. In these […] assays, a shaking water bath and a Wallac Wizard 1470 automatic gamma counter (Perkin Elmer, Inc.; Waltham, Mass.) were used. At each concentration tested, a background signal was subtracted from the data. This background signal was determined in samples of the test articles in PBS in the absence of serum. All assays were performed in duplicate.

[2] = tested on: cholesterol-fed Sprague Dawley rat; test: Single oral dose, plasma cholesterol lowering in cholesterol-fed rat; assay type: in vivo; conditions: 24 hours
Protocol: Compound I was tested to determine the cholesterol lowering efficacy and potency of Compound I following oral administration of single dose to a standard rodent model of hypercholesterolemia, the cholesterol-fed Sprague Dawley rat.
Male Sprague Dawley rats were obtained from Harlan (Livermore, Calif.) at a body weight of 250 g, caged 3 rats/cage, and housed under a 12 h:12 h, light:dark cycle (lights on at 7 AM). Pelleted 5001 chow containing 1.5% cholesterol and 0.5% cholic acid (Harlan Teklad, Indianapolis, Ind.) was provided for 2 weeks prior to the initiation of treatment. Food and water were provided ad libitum.
Compound I was dissolved in 100% PEG-400. […]
Male Sprague Dawley rats (˜250 g) were fed a diet containing 1.5% cholesterol and 0.5% cholic acid for 2 weeks prior to the initiation of treatment. Compound I was administered as an oral solution in PEG-400 and phosphate buffered saline, respectively, at doses ranging from 0.3 to 100 mg/kg Compound I. Thyroid hormone T3 (0.1 mg/kg) was evaluated as a positive control. […]
Plasma was prepared from the blood samples by centrifugation in an Eppendorf Microfuge (14,000 rpm, 2 min, room temperature). Total plasma cholesterol was measured using the Infinity cholesterol reagent (Thermo Electron Corporation, Waltham, Mass.) and a standard curve prepared with a 300 mg/dL cholesterol standard. […]

[3] = tested on: fT3 and fT4 levels in human serum; test: Ex vivo effect on fT3 and fT4 levels in human serum (RIA)
Protocol: as §1, §2

[4] = tested on: beagle dogs; test: Once-daily oral administration for 14 days, thyroid function tests (tT4, fT4, tT3, fT3, TSH) in beagle dogs; assay type: in vivo, dog
Protocol: (§3) The effects of once-daily oral administration of Compound I on plasma cholesterol levels and thyroid function indicators in beagle dogs were evaluated for 14 days.
(§4) Male and female beagle dogs were purchased from Marshall Farms (North Rose, N.Y.) at approximately 9-15 kg in body weight. Animals were housed individually under a 12 hour lighting cycle (7 am-7 pm light) and controlled temperature (˜22° C.). The dogs were fed twice-daily with Teklad 8563 chow (Harlan Teklad, Madison, Wis.) and allowed water ad libitum.
Compound I was dissolved in 100% PEG-400. The formulation was prepared just prior to initiation of treatment and stored at 4° C. A fresh formulation was prepared for each 7 day treatment period.
Twelve beagle dogs (9-15 kg) were randomized into 6 dosing groups (1 male and 1 female/group) and gavaged once-daily with a PEG-400 solution of Compound I at doses of 0.1, 0.3, 1, 3, or 10 mg/kg or with vehicle for 14 days. At the end of the treatment cycle (Cycle 1), the dogs were washed out for 6 weeks and then entered into a second 14-day treatment cycle. Cycle 2 employed the same dosing paradigm as Cycle 1, but animals were randomized to Cycle 2 in such a way that the combined dosing groups from the two cycles each consisted of 4 different animals (2 males, 2 females). Blood samples were collected at baseline and appropriate time intervals thereafter and analyzed for total plasma cholesterol levels, serum levels of total T4 (tT4), free T4 (fT4), total T3 (tT3), free T3 (fT3), thyroid stimulating hormone (TSH), and plasma drug levels.
Serum samples were shipped on dry ice to the Diagnostic Center for Population and Animal Health (Lansing, Mich.) and assayed for total T4 (tT4), free T4 (fT4), total T3 (tT3), free T3 (fT3), and thyroid stimulating hormone (TSH). Average values±the standard error of the mean (SEM) were calculated for all treatment groups.

[5] = tested on: beagle dogs; test: Once-daily oral administration for 14 days, total plasma cholesterol in beagle dogs; assay type: in vivo, dog; conditions: 14 days once-daily oral, 0.1-10 mg/kg/day
Protocol: as §3, §4
Compound I was dissolved in 100% PEG-400. The formulation was prepared just prior to initiation of treatment and stored at 4° C. […]
(§5) Twelve beagle dogs (9-15 kg) were randomized into 6 dosing groups (1 male and 1 female/group) and gavaged once-daily with a PEG-400 solution of Compound I at doses of 0.1, 0.3, 1, 3, or 10 mg/kg or with vehicle for 14 days. […] Blood samples were collected at baseline and appropriate time intervals thereafter and analyzed for total plasma cholesterol levels, serum levels of total T4 (tT4), free T4 (fT4), total T3 (tT3), free T3 (fT3), thyroid stimulating hormone (TSH), and plasma drug levels.
Total plasma cholesterol was measured using an Infinity cholesterol reagent (Thermo Electron Corporation, Waltham, Mass.) and with use of a standard curve prepared from a 300 mg/dL cholesterol standard. […]

[6] = tested on: beagle dogs; test: Comparison of Compound I and MB07811: cholesterol, tT4 and TSH in beagle dogs; assay type: in vivo, dog
Protocol: Compound I was compared with Compound MB07811 with respect to their efficacy in lowering cholesterol and their effects on the total T4 (tT4) and thyroid stimulating hormone (TSH).
Compound I and Compound MB07811 were tested to determine the effects of oral administration of each compound once-daily for 14 days followed by alternate day dosing for 14 days on plasma cholesterol levels and indicators of thyroid function in beagle dogs.
as §4, with “Beagle” for “beagle”, “kg.” for “kg in body weight.”, “12-hour” for “12 hour”, “twice daily” for “twice-daily”
MB07811 was administered as a suspension in 0.5% CMC/1% Lutrol in deionized water. To prepare the vehicle, the required amount of CMC was weighed and dissolved in deionized water using a Waring blender. The required amount of Lutrol F68 was weighed and slowly added to the Waring blender while mixing. […]
as §5, with “0.5% CMC/1% Lutrol F68 suspension” for “PEG-400 solution”, “MB07811” for “Compound I”, “[…]” for “mg/kg”, “(fT3), and” for “(fT3),”, “(TSH). […]” for “(TSH), and plasma drug levels.”
Twelve beagle dogs (9-15 kg) were randomized into 6 dosing groups (1 male and 1 female/group) and gavaged once-daily with a PEG-400 solution of Compound I at doses of 0.1, 0.3, 1, 3, or 10 mg/kg or with vehicle for 14 days. […] Blood samples were collected at baseline and appropriate time intervals thereafter and analyzed for total plasma cholesterol levels, serum levels of total T4 (tT4), free T4 (fT4), total T3 (tT3), free T3 (fT3), and thyroid stimulating hormone (TSH), and for plasma drug levels

[7] = tested on: fT3 and fT4 levels in dog serum; test: Ex vivo effect on fT3 and fT4 levels in dog serum (RIA); conditions: 1 h at 37° C., 1-100 μM tested
Protocol: as §1, §2

[8] = tested on: fT3 and fT4 levels in rat serum; test: Ex vivo effect on fT3 and fT4 levels in rat serum (RIA); conditions: 1 h at 37° C., 1-100 μM tested
Protocol: as §1, §2

[9] = tested on: rat; test: Pilot rat 28-day safety study; conditions: 28 days; 1 and 5 mg/kg per day
Protocol: Two doses were tested, 1 mg/kg per day and 5 mg/kg per day. […] The mice were sacrificed on day 29 and then analyzed for clinical signs, BW, FC Clinical pathology (including TSH, T3, T4), gross pathology, organ weights, histopathology, toxicokinetics.

[10] = all five doses 0.1, 0.3, 1, 3, 10 mg/kg, baseline, 8-day, 15-day

## Cc1cc(OCP(=O)(OCOC(=O)C(C)(C)C)OCOC(=O)C(C)(C)C)cc(C)c1Cc1ccc(O)c(Cc2ccccc2)c1 [Compound I]
[1]
  highest concentration at which no increase in fT3 level was observed: 30 µM
  highest concentration at which no increase in fT4 level was observed: 100 µM
[2]; Rattus norvegicus, single oral dose, read-out: ED50 (dose that elicits a half-maximal reduction in total plasma cholesterol levels from baseline)
  ED50: ~2 mg/kg
[3]
  concentration at which no effect on fT3 was shown: less than 30
  concentration at which no effect on fT4 was shown: less than 100 μM
[3]; 1 h at 37° C., 1-100 μM tested
  highest concentration at which no increase in fT3 level was observed: 30 µM
  highest concentration at which no increase in fT4 level was observed: 100 µM
[4]; 14 days, highest dose group 10 mg/kg/day
  reduction of serum fT3: about 45%
[4]; Day 15, 1 mg/kg/day
  reduction of serum tT4 from baseline: about 29%
[4]; Day 15, 10 mg/kg/day
  tT4 levels reduced relative to baseline (in the fT3 paragraph, FIG. 9): ~45%
[4]; Day 15, 0.1, 0.3 and 3 mg/kg/day
  reduction of serum tT4 from baseline: 6.7-9.5%
[4]; Day 15, 0.1 to 10 mg/kg/day
  change of serum TSH levels from baseline: no meaningful changes; also recorded: did not show any effect; also recorded: essentially unaffected
[4]; Day 15, all Compound I treated groups, not dose dependent, vehicle about 19%
  reduction of serum fT4 from baseline: 13-32%
[4]; Day 15, doses up to and including 3 mg/kg/day
  reduction of serum fT3 from baseline: 8-20%
[4]; Day 15, treatment groups, not dose dependent, vehicle about 13%
  reduction of serum tT3 from baseline: 8-15%
[5]
  reduction of total plasma cholesterol levels, dose dependent: 15-38%
[6]; [10]
  effect on T4 (tT4) levels in comparison: reduced effect
  effect on serum TSH level in comparison with MB07811: no effect
[6]; dog, in vivo
  effect on the thyroid hormone axis (T4 and TSH) versus MB07811: much reduced effect
[7]
  highest concentration at which no increase in fT3 level was observed: 100 µM
  highest concentration at which no increase in fT4 level was observed: 100 µM
[8]
  highest concentration at which no increase in fT3 level was observed: 100 µM
  highest concentration at which no increase in fT4 level was observed: 100 µM
[9]
  TFT effects greater than Compound MB07811: no evidence
  cardiac or liver necrosis: no evidence
  deaths or adverse effects on body weight, food consumption, hematology, serum chemistry or urinalysis, or macroscopic or microscopic pathology: no deaths or adverse effects

## N[C@@H](Cc1cc(I)c(Oc2ccc(O)c(I)c2)c(I)c1)C(=O)O [Compound T3, 3,5,3′-triiodo-L-thyronine, reference compound]
[2]; T3 0.1 mg/kg, Compound I 30 and 100 mg/kg
  magnitude of cholesterol lowering versus Compound I at its two highest doses: comparable
